Assay results taken from patent US9394338B2, “Glutathione analogs and uses thereof” (REGENTS OF THE UNIVERSITY OF MINNESOTA, priority 2011, dated 2016).

How the values were obtained:
GSH uptake transporters = assay: Inhibition of [3H]-GSH uptake; type: cell-based, human; details: 100 nM [3H]-GSH; 1 μM, 100 nM and 10 nM compound
Description: Inhibition of Glutathione Uptake by Ψ-GS. The uptake experiment was performed under conditions described previously. Briefly, the cells were seeded in 24-well plates. After an overnight incubation, the cells were treated with 100 nM concentration of [^3H]-GSH in uptake buffer (128 mM NaCl, 4.73 mM KCl, 1.25 mM CaCl2, 1.25 mM MgSO4, and 5 mM HEPES, pH =7.4) in the presence or absence of Ψ-GSH at concentrations of 10, 100 and 1000 nM at 37° C. under 5% CO2 for 30 min. At the end of incubation, the cellular uptake was terminated by washing three times with ice-cold PBS. Any remaining buffer was aspirated, and the cells were lysed with 1 ml of warm 0.1% SDS/0.1 N NaOH solution for a minimum of 45 min. Intracellular levels of radioactive GSH were determined using liquid scintillation counting. All resulting levels of GSH uptake were normalized to the total protein in each well using a BCA protein assay. All uptake experiments were performed in triplicate and statistically significant differences in uptake were evaluated using Graphpad Prism 5.1 (Graphpad, La Jolla, Calif.) using a one-way ANOVA followed by a Dunnett's post hoc test with a false discovery rate of 0.05.

APP/PS1 mice [1] = assay: Brain lipid peroxidation (TBARS) assay; type: in vivo
Description: (§1) Efficacy Study Design. To determine the effect of intraperitoneal and oral Ψ-GSH treatment, the study was divided in four groups (10 mice/group). 1. APP/PS1 mice-vehicle control, 2. APP/PS1 mice-Ψ-GSH i.p. 500 mg/kg, 3. APP/PS1 mice-Ψ-GSH oral 500 mg/kg, 4. Non-transgenic wild type mice-vehicle control. All the animals in the above-said groups were treated with saline or Ψ-GSH three times a week for 12 weeks, starting at the age of three to four months. Eleven weeks after the start of the treatment, the animals were tested in the Morris water maze, and twelve weeks after the start of the treatment, the animals were sacrificed for histopathological analysis.
Lipid Peroxidation Assay. The levels of lipid peroxidation were quantified by the thiobarbituric acid-reactive substances (TBARS) assay. Brain homogenate was treated with 2 ml of (1:1:1) ratio (TBA) thiobarbituric acid -(TCA) trichloroacetic acid -(HCl) chloridic acid reagent (TBA 0.37%, 0.25 N HCL and 15% TCA) and placed in water bath for 15 min, cooled and centrifuged and then clear supernatant was measured at 535 nm against reference blank. Protein was determined by the BCA protein assay kit. TBARS were normalized to the protein content in each sample and then expressed as percentage of the corresponding values in non-transgenic saline controls.

Swiss Webster Mice = assay: ACP (acetaminophen) overdose rescue and effects on normal liver; type: in vivo
Description: 36-Male Swiss Webster Mice (HSD) were fasted over-night and then brought to the lab at 8:00 am the following day and weighed. Food was kept out of the cages until after the final drug injection. Mice were divided into treatment groups as below in Table 2.
Thirty minutes post overdose with 370 mg/kg ACP, the following were evaluated for the groups in Table 2:
N-acetylcysteine (NAC) at 7.35 mmol/kg;
Ψ-GSH at three different doses, 3.67, 2.45 and 1.22 mmol/kg; and
examine effects of Ψ-GSH on normal liver at rescue doses.

APP/PS1 mice [2] = assay: Immunohistochemistry of Aβ plaques in brain; type: in vivo
Description: as §1
Immunohistochemistry. Mice were anesthetized, and their brains were removed, cut sagittaly. Following post-fixation of right hemisphere in Zamboni's fixative (4% paraformaldehyde and 15% picric acid in 0.25 M sodium phosphate, pH 7.5) for 48 h before being cryopreserved in a 30% (wt/vol) sucrose in phosphate-buffered saline solution. Brains were then were embedded in O.C.T. Tissue Tek Compound (Miles Scientific) and were cryosectioned at 10 μm thickness for immunohistochemistry, mounted on Superfrost™ microscope slides (Erie Scientific, Portsmouth N.H.) and stored at […] until their utilization.
The brain sections were stained with a primary antibody against 0-amyloid peptide (Cell signaling, Cat. #2454) at a dilution of 1:200 in PBS. […]

[3] = Non-protein thiols in plasma and brain (DTNB); type: in vivo, C57BL/6 mice
Description: Detection of Non-Protein Thiols in Plasma and Brain. Wild type C57BL/6 mice at the age of six to eight weeks (4 per group) were treated with Ψ-GSH i.p and orally. Mice were euthanized by overdose of ketamine and xylazine at the desired time-points from the administration of the drug (0, 0.5, 1, 2 and 4 hours after drug administration). Brain and plasma samples were collected. Brains were perfused with ice-cold 0.9% NaCl, and cut sagittally into left and right hemispheres. The right hemisphere was fixed in Zamboni's fixative as described under Immunohistochemistry. The left hemispehere was immediately frozen in liquid nitrogen and utilized in further biochemical analysis. Brain tissue was homogenized in ice-cold buffer (50 mM phosphate, pH 7.0, containing 1 mM EDTA containing protease inhibitors) containing 5% sulfosalicylic acid. After homogenization, samples were centrifuged at 8000×g for 10 min at 4° C. The clear supernatant was transferred to a new tube and used for analysis of free thiol concentration.
Blood was collected in heparin-coated tubes (Fisher, Pittsburgh, Pa.) and immediately centrifuged at 5000×g for 10 min at 4° C. […]
Assay Conditions: 150 μl of Tris.HCl, pH 8.9 (Trizma base, 0.2 M; EDTA 0.02 M)+20 μl of DTNB (1 mg/mL in methanol)+50 μl of supernatant from TCA precipitation. The changes in absorbance were measured at 412 nm after […] incubation in dark at room temperature.

For `N[C@@H](CNC(=O)N[C@@H](CS)C(=O)NCC(=O)O)C(=O)O` [Ψ-GSH, γ-Gla-Cys-Gly-OH], the “[3H]-GSH uptake by SH-SY-5Y cells” value (GSH uptake transporters) was “inhibited in a dose-dependent manner”, the “TBARS levels in brain (WT saline = 100%)” value (APP/PS1 mice [1]; i.p.) was 95.3±5.51% and the “levels of lipid peroxidation” value (APP/PS1 mice [1]; oral) was “unaffected”. The “liver histopathology after ACP overdose” value (Swiss Webster Mice; 370 mg/kg ACP + rescue agent) was “absence of necrotic tissue”, the “ALT levels after ACP overdose” value (Swiss Webster Mice; 370 mg/kg ACP, rescue 30 min later at half molar equivalent of NAC) was “decrease in ALT levels comparable to that caused by NAC” and the “tolerability when given alone” value (Swiss Webster Mice; mouse, in vivo) was “safe and well tolerated”. For the same compound, the “number and size of Aβ plaques” value (APP/PS1 mice [2]; i.p.) was “drastically reduced”, the “Aβ plaques relative to controls” value (APP/PS1 mice [2]; oral) was “modest decrease” and the plasma thiol level ([3]; oral 500 mg/Kg, over 2 hours) was “reducing to basal levels”. The plasma thiol level ([3]; single i.p. 500 mg/Kg, at 4 hours) was “dropped to basal levels”.
